Test systems include SF-295 CNS; M14 melanoma; SR leukemia; PC-3 prostate; OVCAR-4 ovarian; HOP-62 NSCLC; KM12 colon; MDA-N; UO-31 renal; RPMI-8226 leukemia; 786-0 renal; SN12C renal; SK-MEL-2 melanoma; UACC-62 melanoma; MDA-MB-231 breast; UACC-257 melanoma; DU-145 prostate; NCI-H522 lung; NCI-H23 lung; T-47D breast.
Holding throughout (assay): growth of human tumour cells (NCI), 48 h

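Cultured in 96-well plates, cells were exposed to test compound for 48 hours across five concentrations. Definition used: TGI = concentration required for complete inhibition of growth.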 Some results are limits rather than exact numbers.

As for `O=[N+]([O-])c1ccccc1S(=O)(=O)c1cccc2c1NCCC2`, the TGI in the assay on SF-295 CNS, in the assay on M14 melanoma, with SR leukemia, in the assay with PC-3 prostate, in the assay on OVCAR-4 ovarian and in the assay on HOP-62 NSCLC was more than 100 µM each time. In addition, the TGI in the assay with KM12 colon, in the assay on MDA-N, with UO-31 renal, in the assay with RPMI-8226 leukemia, in the assay on 786-0 renal and in the assay with SN12C renal was more than 100 µM each time. Also, the TGI in the assay with SK-MEL-2 melanoma was more than 100 µM; in the assay with UACC-62 melanoma, more than 100 µM; with MDA-MB-231 breast it was more than 100 µM; with UACC-257 melanoma, 63.2 µM; in the assay with DU-145 prostate, more than 100 µM.
Consider `Cn1c(=O)oc2cc(C(O)CN3CCN(Cc4ccc5c(c4)OCO5)CC3)ccc21` (stereo unspecified), for which the TGI in the assay on NCI-H522 lung, with SF-295 CNS, in the assay with M14 melanoma, with SR leukemia, with NCI-H23 lung and in the assay on PC-3 prostate was more than 100 µM each time. In addition, the TGI in the assay with OVCAR-4 ovarian, in the assay with HOP-62 NSCLC, in the assay with KM12 colon, in the assay on UO-31 renal, in the assay with T-47D breast and in the assay with 786-0 renal was more than 100 µM throughout. Besides, the TGI in the assay on SN12C renal, in the assay on UACC-62 melanoma, with MDA-MB-231 breast, in the assay with UACC-257 melanoma and with DU-145 prostate was more than 100 µM each time.
For the compound `CC1=CP(=O)(OC(C)C)C=C(C)C1=C(Cl)Cl` (stereo unspecified), the TGI in the assay with NCI-H522 lung is 9.03 µM; with SF-295 CNS, more than 100 µM; in the assay with M14 melanoma, more than 100 µM; with SR leukemia, more than 100 µM; with NCI-H23 lung it was more than 100 µM; in the assay on OVCAR-4 ovarian it was more than 100 µM. Also, the TGI in the assay on HOP-62 NSCLC was more than 100 µM; in the assay on KM12 colon, 53.7 µM; in the assay with UO-31 renal it was 27.2 µM; in the assay on RPMI-8226 leukemia it was more than 100 µM; with 786-0 renal, more than 100 µM; in the assay with SN12C renal, more than 100 µM. Besides, the TGI is 59 µM in the assay on SK-MEL-2 melanoma, more than 100 µM in the assay with UACC-62 melanoma and more than 100 µM in the assay on UACC-257 melanoma.
In the case of `Cc1cc(N(CCC#N)CCC#N)ccc1/C(Sc1ccccc1)=C(\NC(=O)/C=C/c1ccccc1)C(=O)Sc1ccccc1`, the TGI is 1.82 µM with NCI-H522 lung; 14.7 µM with SF-295 CNS; 6.3 µM with M14 melanoma; more than 31.5 µM with SR leukemia; 11.2 µM in the assay on NCI-H23 lung; 18.6 µM with OVCAR-4 ovarian. Besides, the TGI with HOP-62 NSCLC was 8.53 µM; in the assay on KM12 colon it was 15.3 µM; in the assay with UO-31 renal it was 6.15 µM; in the assay with RPMI-8226 leukemia it was 6.07 µM; with 786-0 renal, 8.8 µM; with SN12C renal it was 7.29 µM. In addition, the TGI came out at 16.6 µM in the assay on SK-MEL-2 melanoma, 12.3 µM in the assay with UACC-62 melanoma and 25.9 µM in the assay with UACC-257 melanoma.
As for `C[n+]1c(-c2ccc(/C=N\Nc3ccnc(N/N=C/c4ccc(-c5cn6ccsc6[n+]5C)cc4)n3)cc2)cn2ccsc21`, the TGI in the assay on NCI-H522 lung is more than 100 µM; in the assay with M14 melanoma, 30.4 µM; in the assay with SR leukemia it was 64.8 µM; in the assay with NCI-H23 lung, more than 100 µM; in the assay on PC-3 prostate, more than 100 µM; in the assay on OVCAR-4 ovarian it was more than 100 µM. In addition, the TGI in the assay on HOP-62 NSCLC was 51.6 µM; in the assay on KM12 colon, 84.5 µM; in the assay with MDA-N, 26.7 µM; with UO-31 renal, more than 100 µM; in the assay on RPMI-8226 leukemia, more than 100 µM; in the assay with 786-0 renal, 32.8 µM. For the same compound, the TGI with SN12C renal was more than 100 µM; with UACC-62 melanoma it was 76.4 µM; in the assay with MDA-MB-231 breast it was 67.3 µM; in the assay on UACC-257 melanoma, 43.9 µM; in the assay with DU-145 prostate it was 78 µM.
As to `COC(=O)C1=C(C)NC(CF)=C(C(=O)OC)C1c1cccc2c(=O)c3ccccc3oc12` (stereo unspecified), the TGI was more than 100 µM in the assay on NCI-H522 lung; 22.7 µM in the assay on SF-295 CNS; more than 100 µM in the assay with SR leukemia; more than 100 µM in the assay on NCI-H23 lung; 8.57 µM in the assay with PC-3 prostate; more than 100 µM in the assay on OVCAR-4 ovarian. The TGI in the assay with HOP-62 NSCLC is more than 100 µM; in the assay with KM12 colon it was more than 100 µM; with UO-31 renal, 92.8 µM; with RPMI-8226 leukemia it was more than 100 µM; in the assay with T-47D breast, more than 100 µM; with 786-0 renal, 33.8 µM. The TGI in the assay on SN12C renal, in the assay on SK-MEL-2 melanoma, with UACC-62 melanoma, in the assay on MDA-MB-231 breast, with UACC-257 melanoma and with DU-145 prostate was more than 100 µM each time.
Take `[N-]=[N+]=NC1(Cc2ccccc2)C(=O)Nc2ccccc2C1=O` (stereo unspecified): the TGI in the assay on NCI-H522 lung, with SF-295 CNS, with M14 melanoma, in the assay on SR leukemia, in the assay on NCI-H23 lung and in the assay on OVCAR-4 ovarian was more than 100 µM in each case. The TGI in the assay with HOP-62 NSCLC, in the assay on KM12 colon, in the assay with UO-31 renal, with 786-0 renal, in the assay with SN12C renal and in the assay with SK-MEL-2 melanoma was more than 100 µM in each case. In addition, the TGI with UACC-62 melanoma and in the assay with UACC-257 melanoma was more than 100 µM throughout.
Consider `C=C(Cl)[C@](Cl)(CBr)CC[C@@H](Br)C(C)(C)Cl`, for which the TGI was determined as 30.2 µM in the assay with NCI-H522 lung; 2.23 µM with SF-295 CNS; 30.7 µM in the assay on M14 melanoma; 25.5 µM in the assay on SR leukemia; 28.5 µM in the assay on NCI-H23 lung; 1.18 µM in the assay with PC-3 prostate. For the same compound, the TGI with OVCAR-4 ovarian came out at 3.44 µM; in the assay on HOP-62 NSCLC, 0.9 µM; with KM12 colon, 2.26 µM; in the assay with MDA-N, 2.47 µM; with UO-31 renal, 2.41 µM; with RPMI-8226 leukemia it was 0.363 µM. Moreover, the TGI was found to be 0.552 µM in the assay on 786-0 renal; 17.6 µM in the assay with SN12C renal; 19.3 µM in the assay with UACC-62 melanoma; 3.39 µM in the assay on MDA-MB-231 breast; 2.99 µM in the assay with UACC-257 melanoma; 2.74 µM with DU-145 prostate.

The record behind these values is PubChem BioAssay (NCI).
